For assay [1], the target named is T1, Bcl-xL-GST/Bim BH3 heterodimer (Homo sapiens, UniProt Q07817).
T1 construct: cloned and mutated to delete their transmembrane domains; made in house; host or cells: E. coli BL21
Nature of the assay: ELISA, inhibition of HSBXB signal on non-covalent Bcl-xL-GST/Bim BH3 heterodimer. The assay is classed as binding. The settings on record: heterodimers formed with peptide comprising the BH3 domain of Bim; compound added after peptides, before antibody. On the technique in general: ELISA stands for enzyme-linked immunosorbent assay.
Description: (§3) To further characterize HSBXB, the antibody was assessed under conditions where Bcl-xL/Bim binding, mediated by the BH3 domain of Bim, was inhibited. […] In the experiment shown in FIG. 13A, Bcl-xL-GST was bound to glutathione-coated ELISA plates. Bim-BH3 peptide was then added, or not added as a control, and HSBXB antibody was used to detect complex formation. […] Non-covalent Bcl-xL-GST/Bim BH3 heterodimer was bound to glutathione-coated ELISA plates and treated with ABT-263. ABT-263 was then added to the ELISA plates after addition of peptides and before adding the monoclonal antibody.

Assay [2] has as its target T2, Bcl-xL-GST/Full length BIM protein (Homo sapiens, UniProt Q07817).
T2 construct: cloned and mutated to delete their transmembrane domains; made in house; host or cells: E. coli BL21
The assay is described as follows: ELISA, inhibition of HSBXB signal on Bcl-xL-GST/full length BIM heterodimer. Format: binding. The settings on record: heterodimers formed with full length Bim protein.
Description: The compound was added to the ELISA plates after addition of peptides and before adding the monoclonal antibody.
as §3

Another assay concerns HCC1937 cells. Nature of the assay: Immunofluorescence localization of Bcl-xL and HSBXB. The assay is classed as cell-based, human. The settings on record: IF (FIG. 19).
The next assay concerns BT-474. Nature of the assay: Drug response (cell viability) in breast cancer cells. The settings on record: BT-474 human breast cancer cells. The assay is classed as cell-based. The source says:
(§1) FIG. 16A, and FIG. 16B are graphs showing drug response to A1331852 in breast cancer (BC) cells.
(§2) Drug response to the Bcl-xL inhibitor, A-1331852, or the MEK inhibitor, Selumetinib, was compared in two types of human breast cancer cells, HCC1937 and BT-474, as shown in FIG. 16A and FIG. 16B. […] Immunofluorescence (IF) stainings of the HSBXB antibody and the Bcl-XL inhibitor, A-1331852, are shown in FIG. 17 in untreated human breast cancer cells, HCC1937 and BT-474. IF stainings and relative signal intensity were obtained from human breast cancer cells, HCC1937, treated with or without the A-1331852 inhibitor, or treated with or without the HSBXB antibody, as shown in FIG. 18.

The subject of a further assay is HCC1937. Described as above. As to conditions: HCC1937 human breast cancer cells. The assay is classed as cell-based.
Source text: as §1, §2

For assay [3], the target named is T3, Bcl-xL/Bim heterodimer in Bcl-xL expressing ATH66 cells (Homo sapiens, UniProt Q07817).
T3 construct: endogenous in cells; host or cells: ATH66 cells
Nature of the assay: Flow cytometry HSBXB/Bcl-xL signal after BH3 mimetic treatment. The assay is classed as cell-based. An excerpt: FIG. 8 consists of two graphs that show how the Bcl-xL selective BH3 mimetic (A1155463) shifts the HSBXB heterodimer signal detected in cancer cells. For each series, the left bar is HSBXB signal and the right bar is total Bcl-xL. […] The term “I/C” on the x-axis of the graph refers to “isotype control.” and the term “CC” on the x-axis of the graph refers to the non-stained or “clean control.” The signal was detected using Flow Cytometry.
In these experiments, Bcl-xL expressing ATH66 cells were treated with the compound for 16 hours, then fixed with paraformaldehyde, permeabilized with non-ionic detergent and stained with HSBXB-FITC and with anti-Bcl-xL-Rhodamine. The signals were resolved using flow cytometry. The ratio of the signals provided the Bcl-xL priming index.
(Flow cytometry measures light scatter and fluorescence of single cells or particles in a stream.)

For another assay, the system named is SEV-Bcl-xL-Bim cells. Nature of the assay: Flow cytometry HSBXB/Bcl-xL signal ratio in SEV-Bcl-xL-Bim cells. The assay is classed as cell-based, human. As to conditions: 2 hours semi-permeabilized or 16 hours intact cells, flow cytometry (FIG. 14). The method, then: In FIG. 14A, human seminal endothelial vesicle cells overexpressing ectopic Bcl-xL and Bim (SEV-Bcl-xL-Bim[ref]) were treated with A-1155463 at the indicated concentrations for 2 hours in semi-permeabilized cells, fixed, and then […] HSBXB or Bcl-xL antibody corrected to IgG-2A isotype. The ratio of the signals (y-axis) were collected flow cytometry. In FIG. 14B, intact SEV-Bcl-xL/Bim cells were treated with A-1155463 for 16 hours, fixed and stained as in FIG. 14A. The ratio of HSBXB and Bcl-xL signal was calculated as a percentage as shown below: […]

The results in this text go back to US20200348280A1, “METHODS FOR PREDICTING CANCER DRUG RESPONSIVENESS” (Eutropics Pharmaceuticals, Inc., priority 2018, published 2020).

T3 sequence (Q07817 whole entry, species assumed, one chain of several): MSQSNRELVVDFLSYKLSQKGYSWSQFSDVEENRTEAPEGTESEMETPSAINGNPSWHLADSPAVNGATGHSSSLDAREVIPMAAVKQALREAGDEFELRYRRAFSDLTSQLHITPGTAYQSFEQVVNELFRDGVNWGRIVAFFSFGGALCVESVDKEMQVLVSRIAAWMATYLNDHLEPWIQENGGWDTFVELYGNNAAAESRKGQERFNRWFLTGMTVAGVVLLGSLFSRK
T2 sequence (Q07817 1-209 limits assumed): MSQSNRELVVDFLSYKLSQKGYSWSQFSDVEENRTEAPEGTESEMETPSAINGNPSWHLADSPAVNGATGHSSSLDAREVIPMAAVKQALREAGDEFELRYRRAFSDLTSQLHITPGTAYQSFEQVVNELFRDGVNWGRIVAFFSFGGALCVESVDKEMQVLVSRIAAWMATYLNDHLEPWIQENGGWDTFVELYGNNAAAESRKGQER
T1 sequence (Q07817 1-209 limits assumed, one chain of several): as the sequence (Q07817 1-209 limits assumed) above
Description for HCC1937 cells: A quantitative analysis was performed using the software Zen 2011 (Blue edition, Carl Zeiss). For each panel, the bar at the far left is Mito-BCL-XL, the next bar is Mito-HSBXB, the next bar is Bcl-XL-HSBXB, the next bar is Bcl-XL-DAPI, and the bar on the far right is HSBXB-DAPI. […] Immunofluorescence (IF) stainings of the HSBXB antibody and the Bcl-XL inhibitor, A-1331852, are shown in FIG. 17 in untreated human breast cancer cells, HCC1937 and BT-474. IF stainings and relative signal intensity were obtained from human breast cancer cells, HCC1937, treated with or without the A-1331852 inhibitor, or treated with or without the HSBXB antibody, as shown in FIG. 18.

Turning to `CC1(C)CCC(c2ccc(Cl)cc2)=C(CN2CCN(c3ccc(C(=O)NS(=O)(=O)c4ccc(N[C@H](CCN5CCOCC5)CSc5ccccc5)c(S(=O)(=O)C(F)(F)F)c4)cc3)CC2)C1` [ABT-263], the “inhibition of heterodimer antibody (HSBXB) signal” value in assay [1] and in assay [2] was “dose-dependent inhibition of heterodimer antibody signal” in each case.
With `Cc1c(-c2ccc(N3CCc4cccc(C(=O)Nc5nc6ccccc6s5)c4C3)nc2C(=O)O)cnn1CC12CC3CC(CC(C3)C1)C2` [A-1331852], in the assay with HCC1937 cells, the “localization of Bcl-xL and HSBXB” value is “Changes in the localization of Bcl-xL and HSBXB”. The cell viability result with BT-474 and with HCC1937 was “decrease in cell viability” in each case.
As for `CN(C)CC#Cc1ccc(OCCCc2sc(N3CCc4cccc(C(=O)Nc5nc6ccccc6s5)c4C3)nc2C(=O)O)c(F)c1` [A-1155463], in assay [3] (ATH66 cells treated for 16 hours, flow cytometry), the “Bcl-xL priming index (ratio of HSBXB-FITC and anti-Bcl-xL-Rhodamine signals)” value is recorded as “diminish over a time course that coincided with the occurrence of apoptosis”. Besides, in assay [3] (sub-lethal dose, 16 hours, flow cytometry (FIG. 8)), the HSBXB heterodimer signal result was “lose signal after 16 hours”. For the same compound, the “HSBXB signal (ratio of HSBXB and Bcl-xL signal)” value in the assay with SEV-Bcl-xL-Bim cells is “HSBXB signal shifts”.
